Assay [1] deals with T1, Protein cereblon/Tyrosine-protein kinase BTK (Homo sapiens, UniProt Q06187+Q96SW2). The assay is described as follows: PROTAC activity at CRBN/BTK in human Ramos cells assessed as degradation of BTK protein incubated for 4 hrs by HTRF assay. It is filed as cell-based. In general terms: In TR-FRET formats the signal depends on donor and acceptor labels being close together.
Target sequence in this assay (Q06187 whole entry): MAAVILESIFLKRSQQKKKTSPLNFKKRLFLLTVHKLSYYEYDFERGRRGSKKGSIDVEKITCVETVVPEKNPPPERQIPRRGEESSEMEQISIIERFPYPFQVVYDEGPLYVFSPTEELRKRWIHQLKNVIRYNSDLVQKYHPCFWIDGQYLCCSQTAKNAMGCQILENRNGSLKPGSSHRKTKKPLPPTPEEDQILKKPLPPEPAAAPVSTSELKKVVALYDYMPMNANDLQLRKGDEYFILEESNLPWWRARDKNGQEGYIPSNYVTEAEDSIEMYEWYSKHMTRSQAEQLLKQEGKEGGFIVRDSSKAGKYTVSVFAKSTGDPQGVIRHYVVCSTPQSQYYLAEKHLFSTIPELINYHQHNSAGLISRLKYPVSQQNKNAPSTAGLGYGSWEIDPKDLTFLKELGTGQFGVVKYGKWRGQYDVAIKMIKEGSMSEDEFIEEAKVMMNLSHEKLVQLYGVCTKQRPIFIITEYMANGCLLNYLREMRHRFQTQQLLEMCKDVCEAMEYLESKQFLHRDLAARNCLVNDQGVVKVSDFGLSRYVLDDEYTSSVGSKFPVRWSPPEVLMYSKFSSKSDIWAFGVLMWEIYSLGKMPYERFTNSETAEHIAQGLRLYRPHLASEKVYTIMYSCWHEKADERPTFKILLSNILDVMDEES
Target sequence in this assay (Q96SW2 whole entry): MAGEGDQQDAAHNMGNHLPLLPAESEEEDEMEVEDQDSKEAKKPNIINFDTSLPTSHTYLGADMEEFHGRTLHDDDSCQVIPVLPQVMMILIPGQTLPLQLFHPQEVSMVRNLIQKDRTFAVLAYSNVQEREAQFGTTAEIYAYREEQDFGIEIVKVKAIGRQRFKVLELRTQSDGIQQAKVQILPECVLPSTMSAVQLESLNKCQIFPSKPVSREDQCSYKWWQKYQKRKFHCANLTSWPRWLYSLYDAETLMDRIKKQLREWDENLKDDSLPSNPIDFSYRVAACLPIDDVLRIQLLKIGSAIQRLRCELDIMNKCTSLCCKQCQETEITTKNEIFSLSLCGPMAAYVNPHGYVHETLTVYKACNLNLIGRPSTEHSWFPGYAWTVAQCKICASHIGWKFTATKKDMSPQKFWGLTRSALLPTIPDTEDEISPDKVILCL

In assay [2] the target is T1, Protein cereblon/Tyrosine-protein kinase BTK. Kind of assay: PROTAC activity at CRBN/BTK in human Ramos cells assessed as maximal degradation of BTK protein incubated for 4 hrs by HTRF assay relative to control. It is filed as cell-based.
Target sequence in this assay (Q06187 2-659 limits assumed): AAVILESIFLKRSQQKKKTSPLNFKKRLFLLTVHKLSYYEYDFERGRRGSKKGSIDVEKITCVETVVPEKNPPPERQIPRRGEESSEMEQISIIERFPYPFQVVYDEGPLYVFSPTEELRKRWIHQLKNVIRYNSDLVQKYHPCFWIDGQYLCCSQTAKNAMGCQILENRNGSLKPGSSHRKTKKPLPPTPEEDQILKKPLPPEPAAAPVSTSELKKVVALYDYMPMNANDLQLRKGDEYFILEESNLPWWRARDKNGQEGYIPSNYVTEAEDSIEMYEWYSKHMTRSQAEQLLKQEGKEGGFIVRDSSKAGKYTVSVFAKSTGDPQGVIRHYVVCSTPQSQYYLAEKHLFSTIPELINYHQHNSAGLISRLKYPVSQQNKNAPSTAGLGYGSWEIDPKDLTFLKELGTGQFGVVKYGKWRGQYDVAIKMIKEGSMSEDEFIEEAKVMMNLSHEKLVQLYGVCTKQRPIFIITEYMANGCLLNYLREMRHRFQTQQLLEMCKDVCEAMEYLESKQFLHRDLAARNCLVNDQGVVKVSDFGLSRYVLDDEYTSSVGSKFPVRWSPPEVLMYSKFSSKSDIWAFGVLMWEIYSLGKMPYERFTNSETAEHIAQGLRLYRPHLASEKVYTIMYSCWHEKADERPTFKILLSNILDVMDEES
Target sequence in this assay (Q96SW2 whole entry partner): as the sequence (Q96SW2 whole entry) above
For assay [3], the target named is T2, Protein cereblon/Zinc finger protein Aiolos (Homo sapiens, UniProt Q96SW2+Q9UKT9). The assay is described as follows: PROTAC activity at CRBN/IKZF3 in human T cell assessed as maximal degradation of IKZF3 protein incubated for 24 hrs by flow cytometry relative to control. It is filed as cell-based. For orientation: A flow cytometer gives signals particle by particle.
Target sequence in this assay (Q96SW2 whole entry, looked up): as the sequence (Q96SW2 whole entry) above
Target sequence in this assay (Q9UKT9 whole entry, looked up): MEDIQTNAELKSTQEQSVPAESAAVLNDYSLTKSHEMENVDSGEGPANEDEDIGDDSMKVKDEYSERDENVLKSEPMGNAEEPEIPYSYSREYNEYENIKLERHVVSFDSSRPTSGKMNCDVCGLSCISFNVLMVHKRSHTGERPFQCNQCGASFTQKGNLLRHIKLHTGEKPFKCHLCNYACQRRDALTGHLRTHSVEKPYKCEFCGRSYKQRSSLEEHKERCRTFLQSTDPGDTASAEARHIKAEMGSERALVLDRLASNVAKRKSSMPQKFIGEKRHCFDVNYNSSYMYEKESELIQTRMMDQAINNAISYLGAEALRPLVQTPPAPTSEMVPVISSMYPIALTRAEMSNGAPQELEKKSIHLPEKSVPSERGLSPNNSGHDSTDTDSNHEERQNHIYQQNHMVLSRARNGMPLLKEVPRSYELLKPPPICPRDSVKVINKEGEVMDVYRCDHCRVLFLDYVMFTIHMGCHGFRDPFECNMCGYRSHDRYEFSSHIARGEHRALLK

The target in assay [4] is T1, Protein cereblon/Tyrosine-protein kinase BTK. Kind of assay: PROTAC activity at CRBN/BTK in human TMD8 cells assessed as maximal degradation of BTK protein incubated for 4 hrs by HTRF assay relative to control. It is filed as cell-based.
Target sequence in this assay (Q06187 2-659 limits assumed): as the sequence (Q06187 2-659 limits assumed) above
Target sequence in this assay (Q96SW2 whole entry partner): as the sequence (Q96SW2 whole entry) above
For assay [5], the target named is T3, Protein cereblon/Tyrosine-protein kinase BTK (Mus musculus) (UniProt P35991+Q8C7D2). Kind of assay: In vivo protac activity at CRBN/BTK in BALB/c mouse assessed as remaining BTK protein in splenocyte at 3 mg/kg,po administration measured after 6 hrs by HTRF assay relative to control. The format is functional, organism-based.
T3 sequence (P35991 whole entry, looked up): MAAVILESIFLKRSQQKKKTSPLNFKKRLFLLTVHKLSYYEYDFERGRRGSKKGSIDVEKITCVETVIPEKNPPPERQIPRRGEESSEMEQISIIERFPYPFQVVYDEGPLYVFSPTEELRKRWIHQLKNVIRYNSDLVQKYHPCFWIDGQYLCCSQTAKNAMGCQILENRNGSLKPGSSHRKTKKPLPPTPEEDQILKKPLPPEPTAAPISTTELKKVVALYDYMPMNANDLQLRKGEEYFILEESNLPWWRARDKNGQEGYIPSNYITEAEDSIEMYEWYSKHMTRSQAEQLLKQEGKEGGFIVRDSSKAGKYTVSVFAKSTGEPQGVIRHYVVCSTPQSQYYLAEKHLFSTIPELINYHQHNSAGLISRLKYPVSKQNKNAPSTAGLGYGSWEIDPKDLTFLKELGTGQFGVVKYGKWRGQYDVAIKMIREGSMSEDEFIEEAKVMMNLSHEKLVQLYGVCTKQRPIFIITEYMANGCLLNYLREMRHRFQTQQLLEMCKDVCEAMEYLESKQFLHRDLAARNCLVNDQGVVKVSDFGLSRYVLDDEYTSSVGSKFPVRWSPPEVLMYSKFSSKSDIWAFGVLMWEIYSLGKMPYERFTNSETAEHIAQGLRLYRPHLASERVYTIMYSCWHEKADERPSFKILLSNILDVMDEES
T3 sequence (Q8C7D2 whole entry, looked up): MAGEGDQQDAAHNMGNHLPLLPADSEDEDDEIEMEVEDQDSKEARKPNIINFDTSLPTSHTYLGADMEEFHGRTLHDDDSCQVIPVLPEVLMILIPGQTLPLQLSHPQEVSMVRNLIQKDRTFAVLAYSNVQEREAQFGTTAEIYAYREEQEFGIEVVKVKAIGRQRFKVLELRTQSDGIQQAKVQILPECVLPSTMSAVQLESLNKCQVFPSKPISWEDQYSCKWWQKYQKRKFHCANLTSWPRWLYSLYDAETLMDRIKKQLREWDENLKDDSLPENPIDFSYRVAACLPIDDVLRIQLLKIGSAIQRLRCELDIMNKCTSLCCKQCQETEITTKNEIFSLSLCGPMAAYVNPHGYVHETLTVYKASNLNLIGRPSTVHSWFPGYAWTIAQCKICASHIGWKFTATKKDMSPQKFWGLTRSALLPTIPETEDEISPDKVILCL
Assay [6] concerns the target T1, Protein cereblon/Tyrosine-protein kinase BTK. Kind of assay: PROTAC activity at CRBN/BTK in human TMD8 cells assessed as degradation of BTK protein incubated for 4 hrs by HTRF assay. It is filed as cell-based.
Target sequence in this assay (Q06187 whole entry): as the sequence (Q06187 whole entry) above
Target sequence in this assay (Q96SW2 whole entry): as the sequence (Q96SW2 whole entry) above
The target of assay [7] is T2, Protein cereblon/Zinc finger protein Aiolos. The assay is described as follows: PROTAC activity at CRBN/IKZF3 in human T cell assessed as degradation of IKZF3 protein incubated for 24 hrs by flow cytometry. It is filed as cell-based.
Target sequence in this assay (Q96SW2 whole entry): as above
Target sequence in this assay (Q9UKT9 whole entry): as the sequence (Q9UKT9 whole entry, looked up) above
In assay [8] the test system is TMD8. The assay is described as follows: Antitumor activity against human TMD8 cells expressing BTK C481S mutant xenografted in CB17-SCID mouse assessed as tumor growth inhibition at 30 mg/kg,po administration for 25 days. It is filed as functional. The following applies: time 25.0 day. Background: In xenograft studies the graft and the host belong to different species.

In assay [9] the test system is TMD8. Kind of assay: Antitumor activity against human TMD8 cells expressing wild type BTK xenografted in CB17-SCID mouse assessed as tumor growth inhibition at 30 mg/kg,po administration for 25 days. The format is functional. As to conditions: TMD8, 600 h, time 25 day, read-out: TGI.
For assay [10], the target named is T3, Protein cereblon/Tyrosine-protein kinase BTK (Mus musculus). The assay is described as follows: In vivo protac activity at CRBN/BTK in BALB/c mouse assessed as remaining BTK protein in blood at 3 mg/kg,po administration measured after 6 hrs by flow cytomtery relative to control. It is filed as functional, organism-based.

Active and inactive are the calls of the source. No cut-off for these calls is given here.

Regarding `CN1CCN([C@@H]2CCCN(c3cnc(C(N)=O)c(Nc4ccc(C5CCN(C(=O)CCOCCNc6cccc7c6C(=O)N(C6CCC(=O)NC6=O)C7=O)CC5)cc4)n3)C2)C1=O` (stereo partly drawn), in assay [1], the DC50 is 6.3 nM. Besides, the Emax came out at 80% in assay [2] and 99% in assay [3].

Turning to `Cn1cc(-c2ccnc(-n3ncc4cc(C(C)(C)C)cc(F)c4c3=O)c2CO)cc(Nc2cc3n(n2)CCN(C(=O)CCOCCCc2cccc4c2CN(C2CCC(=O)NC2=O)C4=O)C3)c1=O` (stereo not drawn), in assay [1], the DC50 turned out to be 50 nM. Also, the Emax in assay [2] turned out to be 79%.

For `C[C@H]1CN(C(=O)CCOCCCc2cccc3c2CN(C2CCC(=O)NC2=O)C3=O)CCN1c1ccc(Nc2cc(-c3ccnc(N4CCn5c(cc6c5CC(C)(C)C6)C4=O)c3CO)cn(C)c2=O)nc1` (stereo partly drawn), in [1], the DC50 stood at 7.2 nM. Also, the Emax in assay [2] is 88%.

As to `CN1CCN([C@@H]2CCCN(c3cnc(C(N)=O)c(Nc4ccc(C5(C)CCN(C[C@H]6CCN(c7ccc8c(c7)C(=O)N(C7CCC(=O)NC7=O)C8=O)C6)CC5)cc4)n3)C2)C1=O` (stereo partly drawn), in assay [4], the Emax turned out to be 96%. Further, in assay [5], the Activity was determined as 27%. For the same compound, the DC50 in [6] turned out to be 0.6 nM.

For the compound `CN1CCN([C@@H]2CCCN(c3cnc(C(N)=O)c(Nc4ccc(C5CCN(C[C@H]6CC[C@H](Nc7cccc8c7C(=O)N(C7CCC(=O)NC7=O)C8=O)CC6)CC5)cc4)n3)C2)C1=O` (stereo partly drawn), the DC50 in [1] turned out to be 1.6 nM; in [7] it was 40 nM. The maximal response (Emax) turned out to be 90% in assay [2] and 85% in assay [3].

With `C=CC(=O)N1CCC[C@@H](n2nc(-c3ccc(Oc4ccccc4)cc3)c3c(N)ncnc32)C1` [IBRUTINIB], the result in [8] was inactive. Besides, the inhibition in vivo at 30 mg/kg in assay [9] came out at 55%.

As for `CN1CCN([C@@H]2CCCN(c3cnc(C(N)=O)c(Nc4ccc(N5CCC6(CC5)CCN(c5ccc7c(c5)C(=O)N(C5CCC(=O)NC5=O)C7=O)CC6)cc4)n3)C2)C1=O` (stereo partly drawn), the Emax in assay [4] and in assay [2] was 96% in each case. In addition, the results for the DC50 in assay [1] and in assay [6] were 0.9 nM and 1.3 nM, respectively. Besides, the Activity in assay [5] turned out to be 18%.

As to `NC(=O)c1ncc(-c2nccs2)nc1Nc1ccc(C2CCN(C[C@H]3CCN(c4ccc5c(c4)C(=O)N(C4CCC(=O)NC4=O)C5=O)C3)CC2)cc1` (stereo partly drawn), in assay [4], the Emax was determined as 95%. Further, in assay [10], the Activity came out at 24%. For the same compound, the DC50 in assay [6] turned out to be 1.7 nM.

For `CN1CCN([C@@H]2CCCN(c3cnc(C(N)=O)c(Nc4cnn(C5CCN(CC6CCN(c7ccc8c(c7)C(=O)N(C7CCC(=O)NC7=O)C8=O)CC6)CC5)c4)n3)C2)C1=O` (stereo partly drawn), in assay [4], the Emax turned out to be 96%. Also, the Activity in assay [10] is 48%. In addition, the DC50 in [6] turned out to be 0.63 nM.

`CN1CCN([C@@H]2CCCN(c3cnc(C(N)=O)c(Nc4ccc(C5CCN(C[C@H]6CCN(c7ccc8c(c7)CN(C7CCC(=O)NC7=O)C8=O)C6)CC5)cc4)n3)C2)C1=O` (stereo partly drawn): the Emax in [4] came to 96%. Also, the Activity in assay [10] is 49%. Moreover, in assay [6], the DC50 stood at 0.25 nM.

For the compound `CN1CCN([C@@H]2CCCN(c3cnc(C(N)=O)c(Nc4ccc(C5CCN(C[C@@H]6CCN(c7ccc8c(c7)C(=O)N(C7CCC(=O)NC7=O)C8=O)C6)CC5)cc4)n3)C2)C1=O` (stereo partly drawn), the DC50 in assay [1] was determined as 1.2 nM. For the same compound, the Emax in [2] came out at 93%.

`CN1CCN([C@@H]2CCCN(c3cnc(C(N)=O)c(Nc4ccc(C5CCN(Cc6ccc7c(c6)C(=O)N(C6CCC(=O)NC6=O)C7=O)CC5)cc4)n3)C2)C1=O` (stereo partly drawn): the Emax in [4] stood at 76%. Also, the DC50 in [6] came to 17 nM.

Consider `CN1CCN([C@@H]2CCCN(c3cnc(C(N)=O)c(Nc4ccc(C5CCN(C6CN(c7ccc8c(c7)C(=O)N(C7CCC(=O)NC7=O)C8=O)C6)CC5)cc4)n3)C2)C1=O` (stereo partly drawn), for which the figures for the Emax in [4], in [2] and in [3] were 96%, 91% and 74%, respectively. Besides, the half-maximal degradation concentration (DC50) in assay [1] amounted to 1.4 nM; in assay [6] it was 1.2 nM; in assay [7], 32 nM. Also, the Activity in assay [10] is 35%.

`CN1CCN([C@@H]2CCCN(c3cnc(C(N)=O)c(Nc4ccc(N5CCC6(CC5)CN(c5cccc7c5C(=O)N(C5CCC(=O)NC5=O)C7=O)C6)cc4)n3)C2)C1=O` (stereo partly drawn): in assay [4], the Emax worked out at 50%.

For `CN1CCN([C@@H]2CCCN(c3cnc(C(N)=O)c(Nc4ccc(C5CCN(CC6CN(c7ccc8c(c7)C(=O)N(C7CCC(=O)NC7=O)C8=O)C6)CC5)cc4)n3)C2)C1=O` (stereo partly drawn), the half-maximal degradation concentration (DC50) in assay [1] worked out at 0.8 nM. The Emax in assay [2] is 97%.

`CN1CCN([C@@H]2CCCN(c3cnc(C(N)=O)c(Nc4ccc(C5CCN(CCCNc6cccc7c6C(=O)N(C6CCC(=O)NC6=O)C7=O)CC5)cc4)n3)C2)C1=O` (stereo partly drawn): the values for the DC50 in assay [1] and in assay [7] were 2.4 nM and 11 nM, respectively. For the same compound, the Emax in assay [2] turned out to be 95%; in [3], 87%.

Consider `CN1CCN([C@@H]2CCCN(c3cnc(C(N)=O)c(Nc4ccc(C5CN(C6CCN(c7ccc8c(c7)C(=O)N(C7CCC(=O)NC7=O)C8=O)CC6)C5)cc4)n3)C2)C1=O` (stereo partly drawn), for which the figures for the Emax in assay [4], in assay [2] and in assay [3] were 96%, 95% and 79%, respectively. Further, the figures for the DC50 in assay [1], in assay [6] and in assay [7] were 0.9 nM, 0.53 nM and 28 nM, respectively. Also, the Activity in [10] was 26%.

On to `CN1CCN([C@@H]2CCCN(c3cnc(C(N)=O)c(Nc4ccc(C5CCN(C[C@H]6CCN(c7ccc8c(c7)C(=O)N(C7CCC(=O)NC7=O)C8=O)C6)CC5)nc4)n3)C2)C1=O` (stereo partly drawn), for which the Emax in assay [4] is 96%. For the same compound, the Activity in assay [5] is 46%. In [6], the DC50 was 1 nM.

On to `CN1CCN([C@@H]2CCCN(c3cnc(C(N)=O)c(Nc4ccc(N5CCC6(CCN(c7ccc8c(c7)C(=O)N(C7CCC(=O)NC7=O)C8=O)CC6)CC5)nc4)n3)C2)C1=O` (stereo partly drawn), for which, in assay [4], the Emax was 94%. In addition, in assay [10], the Activity was 96%. Moreover, in [6], the half-maximal degradation concentration (DC50) came out at 4.3 nM.

With `CN1CCN([C@@H]2CCCN(c3cnc(C(N)=O)c(Nc4ccc5c(c4)CCN(CC4CCN(c6ccc7c(c6)C(=O)N(C6CCC(=O)NC6=O)C7=O)CC4)C5)n3)C2)C1=O` (stereo partly drawn), the Emax was determined as 96% in [4], 95% in [2] and 86% in [3]. For the same compound, the DC50 in assay [1] is 2.4 nM; in assay [6], 1.2 nM; in assay [7], 14 nM. Also, the Activity in [10] stood at 68%.

Take `CN1CCN([C@@H]2CCCN(c3cnc(C(N)=O)c(Nc4ccc(C5CCN(C[C@H]6CC[C@@H](Nc7cccc8c7C(=O)N(C7CCC(=O)NC7=O)C8=O)CC6)CC5)cc4)n3)C2)C1=O` (stereo partly drawn): the DC50 is 7 nM in assay [1] and more than 2000 nM in assay [7]. Besides, the maximal effect (Emax) turned out to be 88% in assay [2] and 31% in assay [3].

Take `Cc1[nH]c2c(C(N)=O)ccc(N3CCC[C@H](NC(=O)CCCCCCc4cccc5c4CN(C4CCC(=O)NC4=O)C5=O)C3)c2c1C` (stereo partly drawn): the DC50 in assay [1] is more than 10000 nM. In addition, in assay [2], the Emax was less than 20%.

Regarding `Nc1ncnc2c1c(-c1ccc(Oc3ccccc3)cc1)nn2C1CCN(C(=O)CCOCCOCCOCCOCCOCCNc2cccc3c2C(=O)N(C2CCC(=O)NC2=O)C3=O)CC1` (stereo not drawn), in assay [1], the DC50 turned out to be 32 nM. Moreover, the Emax in assay [2] was 88%.

In the case of `CN1CCN([C@@H]2CCCN(c3cnc(C(N)=O)c(Nc4ccc(N5CC6(C5)CN(c5ccc7c(c5)C(=O)N(C5CCC(=O)NC5=O)C7=O)C6)cc4)n3)C2)C1=O` (stereo partly drawn), the maximal effect (Emax) worked out at 97% in [4], 94% in assay [2] and 83% in assay [3]. Also, the DC50 in [1] is 0.9 nM; in assay [6], 0.8 nM; in assay [7] it was 14 nM.

`Cc1cccc(C[C@@H](NC(=O)c2ccc3[nH]ncc3c2)C(=O)N2Cc3[nH]c4ccccc4c3C[C@@H]2C(=O)NCCOCCOCCOCCOCCOCCOCCOCCNc2cccc3c2C(=O)N(C2CCC(=O)NC2=O)C3=O)c1` (stereo partly drawn): in assay [1], the DC50 turned out to be 2880 nM. The Emax in [2] stood at 51%.

On to `CN1CCN([C@@H]2CCCN(c3cnc(C(N)=O)c(Nc4ccc(C5CCN(CC6CCN(c7ccc8c(c7)C(=O)N(C7CCC(=O)NC7=O)C8=O)CC6)CC5)cc4)n3)C2)C1=O` (stereo partly drawn), for which the figures for the DC50 in assay [1] and in assay [7] were 0.75 nM and 28 nM, respectively. The Emax in [2] is 94%; in assay [3], 74%.

The DC50 is the midpoint of the concentration-degradation curve. The Emax is the maximal effect, on the per cent scale that the assay sets.
